Experimental data as given in US20180015080A1, “COMPOSITIONS AND METHODS FOR TREATMENT IN PARKINSON'S DISEASE PATIENTS” (priority 2013, published 2018).

Experiments:
[1] = cited from earlier work
[2] = test system: PD patients with LIDS; conditions: patients with idiopathic PD and LIDS, one oral dosage per day, 4 mg/day escalated to 24 mg/day
Text: Patients with idiopathic PD and LIDS are enrolled in a clinical study. […] The patient population in this study is typical of those patients with LIDS. Upon randomization of patients for receiving study agent or placebo, there are no statistically significant differences in baseline parameters between the 2 groups.
The study consists of 3 phases: a treatment period, a drug taper period, and a follow-up period. Subjects are randomly assigned to receive either a nicotine salt or placebo (pbo). Treatment is with one oral dosage per day containing a nicotine salt or placebo. […]
Safety is assessed by incidences of adverse experiences (AE), clinical laboratory tests, serum cotinine, ECG and vital signs. Impulsive symptoms are assessed using the Jay Modified Minnesota Impulsive Disorders Interview (JayMidi). Withdrawal symptoms are evaluated using the Minnesota Nicotine Withdrawal Scale (MNWS-R).
Efficacy is assessed using the UPDRS (total of Parts II+III+IV), sum of Q32+Q33, Unified Dyskiensia Rating Scale (UDysRS) total scores and subscores, Lang-Fahn Dyskinesia Acitivties of Daily Living Scale (LF-ADL), CGI-C and PGI-C scales, and responder analyses (subjects with >25% improvement from baseline) on UDysRS total score and LF-ADL, and % subjects with any improvement on PGI-C and CGI-C. […]

Row | SMILES | solubility in water [1] | adverse experiences (AE) [2] | improvement on patient- and physician-rated outcome measures (UPDRS, UDysRS, LF-ADL, CGI-C, PGI-C) compared to pbo ([2]; majority of outcome measures)
1 | N[C@@H](Cc1ccc(O)c(O)c1)C(=O)O [Levodopa, L-3,4-dihydroxyphenylalanine (S)-2-amino-3-(3,4-dihydroxyphenyl)propanoic acid] | slightly soluble | – | –
2 | CN1CCC[C@H]1c1cccnc1 [nicotine, 3-[(2S)-1-methylpyrrolidin-2-yl]pyridine] | – | no unexpected AEs occur | trend towards statistically significant improvement
